Laboratory results published in the NIST ThermoML archive (doi:10.1021/acs.jced.5b00922).
Numbers after ± are expanded uncertainties.

What was measured:
[1] = Liquid; for viscosity: Capillary tube (Ostwald / Ubbelohde) method; for mass density: Pycnometric method
[2] = mn = molality of the nth substance listed, in mol/kg; details: 100 kPa, Liquid, m1 = 4.416; for viscosity: Capillary tube (Ostwald / Ubbelohde) method; for mass density: Pycnometric method; for binary diffusion coefficient: absorption column
[3] = wn = mass fraction of the nth substance listed; details: 100 kPa, Liquid; for viscosity: Capillary tube (Ostwald / Ubbelohde) method; for mass density: Pycnometric method

Compound `NCCCNCCCN` [bis(3-aminopropyl)amine] has a viscosity ([1]; 298 K, 101.33 kPa) of 8.51 ± 0.15 mPa·s, a mass density ([1]; 298 K, 101.33 kPa) of 927.36 ± 4.2 kg/m3 and a viscosity ([1]; 303 K, 101.33 kPa) of 7.04 ± 0.14 mPa·s. It also gave a mass density ([1]; 303 K, 101.33 kPa) of 923.34 ± 4.2 kg/m3, a viscosity ([1]; 308 K, 101.33 kPa) of 5.92 ± 0.13 mPa·s and a mass density ([1]; 308 K, 101.33 kPa) of 919.32 ± 4.2 kg/m3. For the same compound, the viscosity ([1]; 313 K, 101.33 kPa) was 5.05 ± 0.13 mPa·s, the mass density ([1]; 313 K, 101.33 kPa) was 915.28 ± 4.2 kg/m3 and the viscosity ([1]; 318 K, 101.33 kPa) was 4.62 ± 0.12 mPa·s. It also gave a mass density ([1]; 318 K, 101.33 kPa) of 911.18 ± 4.2 kg/m3, a viscosity ([1]; 323 K, 101.33 kPa) of 3.99 ± 0.12 mPa·s and a mass density ([1]; 323 K, 101.33 kPa) of 906.97 ± 4.2 kg/m3.
For `CN(CCO)CCO` [N-methyldiethanolamine] + O, the viscosity ([2]; 298 K) was 3.851 ± 0.091 mPa·s, the mass density ([2]; 298 K) was 1036.91 ± 4.5 kg/m3 and the binary diffusion coefficient ([2]; 298 K) was 8.2e-10 m2/s. It also gave a viscosity ([2]; 303 K) of 3.22 ± 0.091 mPa·s, a mass density ([2]; 303 K) of 1034.27 ± 4.4 kg/m3 and a binary diffusion coefficient ([2]; 303 K) of 9.5e-10 m2/s. For the same compound, the viscosity ([2]; 308 K) was 2.7 ± 0.086 mPa·s, the mass density ([2]; 308 K) was 1030.94 ± 4.5 kg/m3 and the binary diffusion coefficient ([2]; 308 K) was 1.09e-09 m2/s. The viscosity ([2]; 313 K) was 2.215 ± 0.08 mPa·s, the mass density ([2]; 313 K) was 1027.61 ± 4.5 kg/m3 and the binary diffusion coefficient ([2]; 313 K) was 1.24e-09 m2/s. For the same compound, the viscosity ([2]; 318 K) was 1.89 ± 0.075 mPa·s, the mass density ([2]; 318 K) was 1024.05 ± 4.5 kg/m3 and the binary diffusion coefficient ([2]; 318 K) was 1.37e-09 m2/s. It also gave a viscosity ([2]; 323 K) of 1.62 ± 0.07 mPa·s, a mass density ([2]; 323 K) of 1020.68 ± 4.5 kg/m3 and a binary diffusion coefficient ([2]; 323 K) of 1.54e-09 m2/s. It also gave a viscosity ([3]; 298 K, w1 = 0.1) of 1.295 ± 0.1 mPa·s, a viscosity ([3]; 298 K, w1 = 0.2) of 1.925 ± 0.11 mPa·s and a viscosity ([3]; 298 K, w1 = 0.3) of 3.031 ± 0.11 mPa·s. The viscosity ([3]; 298 K, w1 = 1) was 77.6 ± 1.9 mPa·s, the mass density ([3]; 298 K, w1 = 0.1) was 1005.7 ± 4.7 kg/m3 and the mass density ([3]; 298 K, w1 = 0.2) was 1015 ± 4.7 kg/m3. The mass density ([3]; 298 K, w1 = 0.3) was 1024.6 ± 4.7 kg/m3, the mass density ([3]; 298 K, w1 = 1) was 1036.7 ± 4.8 kg/m3 and the viscosity ([3]; 308 K, w1 = 0.1) was 1.007 ± 0.1 mPa·s. The viscosity ([3]; 308 K, w1 = 0.2) was 1.468 ± 0.1 mPa·s, the viscosity ([3]; 308 K, w1 = 0.3) was 2.251 ± 0.11 mPa·s and the viscosity ([3]; 308 K, w1 = 1) was 44.33 ± 1.2 mPa·s. The mass density ([3]; 308 K, w1 = 0.1) was 1001.9 ± 4.7 kg/m3, the mass density ([3]; 308 K, w1 = 0.2) was 1010.9 ± 4.7 kg/m3 and the mass density ([3]; 308 K, w1 = 0.3) was 1020.2 ± 4.7 kg/m3. The mass density ([3]; 308 K, w1 = 1) was 1029.4 ± 4.8 kg/m3, the viscosity ([3]; 323 K, w1 = 0.1) was 0.748 ± 0.1 mPa·s and the viscosity ([3]; 323 K, w1 = 0.2) was 1.033 ± 0.1 mPa·s. It also gave a viscosity ([3]; 323 K, w1 = 0.3) of 1.491 ± 0.11 mPa·s, a viscosity ([3]; 323 K, w1 = 1) of 22.3 ± 0.78 mPa·s and a mass density ([3]; 323 K, w1 = 0.1) of 995.9 ± 4.7 kg/m3. It also gave a mass density ([3]; 323 K, w1 = 0.2) of 1003.4 ± 4.7 kg/m3, a mass density ([3]; 323 K, w1 = 0.3) of 1012 ± 4.7 kg/m3 and a mass density ([3]; 323 K, w1 = 1) of 1018.5 ± 4.9 kg/m3.
In the case of `CN(CCO)CCO` [N-methyldiethanolamine], the viscosity ([1]; 298 K, 100 kPa) is reported as 77.6 ± 1.9 mPa·s, the mass density ([1]; 298 K, 100 kPa) is reported as 1036.7 ± 4.8 kg/m3 and the viscosity ([1]; 308 K, 100 kPa) is reported as 44.33 ± 1.2 mPa·s. The mass density ([1]; 308 K, 100 kPa) was 1029.4 ± 4.8 kg/m3, the viscosity ([1]; 323 K, 100 kPa) was 22.3 ± 0.78 mPa·s and the mass density ([1]; 323 K, 100 kPa) was 1018.5 ± 4.9 kg/m3.
